Laboratory results from patent US6410515B1, “Peptide, a method for its preparation and a pharmaceutical composition containing the peptide” (Immunotech Developments Inc., priority 1995, dated 2002).

Tests used:
[1] = system: mixed lymphocyte culture (MLC); assay: Mixed lymphocyte culture (MLC) proliferation; format: cell-based, mice; conditions: FIG. 1
Description: The influence of the peptides of the invention on the proliferation of a mixed lymphocyte culture (MLC) was studied. The MLC experimental system is an in vitro analogue of the GVHD reaction.
Donor spleen cells from C57B1 mice ([…]) were injected into recipient (CBA×C57B1) F1 mice. Bone marrow was removed from the recipient and cultured for 4 days. The cultured cells were separated into 3 test groups, one group was treated with iDD, one with the L-peptide H-Ile-Glu-Trp-OH and one was a control. Each test peptide was added in various concentrations. Each determination was done in triplicate. ^3H-thymidine was added to each culture for 16 hours and the index of the proliferation of the cells was calculated.

[2] = system: hemopoietic progenitor cells (CFU-S); assay: CFU-S content in bone marrow of mice irradiated with 4 Gy; format: in vivo; conditions: day 8, control 401 ± 48
Description: The effect of H-A-D-Trp-Y, where A is D-Glu or D-iGlu and Y is OH or a substituted amide, on protection and reconstitution of the population of hemopoietic progenitor cells in cytopenias of different origin was studied.
Ionising radiation was used to deplete bone marrow. Donor mice were irradiated at a dose of 4 Gy. For each of the two peptides, 10 μg/kg was injected intraperitoneally 1 hour, 1 day or 2 days before the irradiation (groups of 12 mice each). Bone marrow was taken from femoral bones 8 days after the irradiation. Eight days generally marks the beginning of an exponential reconstitution of both the total number of cells and the population of hemopoietic progenitors in the bone marrow, which were depleted as a result of irradiation.
On the 8th day a sharp statistically significant increase was recorded in the hemopoietic progenitor cells count in the bone marrow of the mice irradiated in the dose of 4 Gy who had received the peptide 2 days before the irradiation.

[3] = system: caryocytes in femoral marrow; assay: Reconstitution of caryocyte numbers in femoral marrow after 4 Gy; format: in vivo, mice
Description: The reconstitution of caryocyte numbers and that of hemopoietic progenitors was studied in femoral marrow after irradiation in the dose of 4 Gy and the peptide injection. The test was performed in 12 groups of mice, 6 animals each, and lasted 14 days. Intraperitoneal injections of the peptide in a dose of 10 μg/kg were made 1 day and 2 days before the irradiation.

Substance	Effect on proliferation of the allogenic lymphocytes (MLC) ([1]; 0.1 μg/ml)	Effect on proliferation of the allogenic lymphocytes (MLC) ([1]; concentrations 1, 10, 20 μg/ml)	CFU-S count per femur ([2]; 10 μg/kg IP 1 hour before 4 Gy)	CFU-S count per femur ([2]; 10 μg/kg IP 1 day before 4 Gy)	CFU-S count per femur ([2]; 10 μg/kg IP 2 days before 4 Gy)	Caryocyte count ([3]; 10 μg/kg IP 1 day before 4 Gy, 4 days after irradiation, 4 Gy alone 9,0 ± 0,3)	Caryocyte count ([3]; 10 μg/kg IP 1 day before 4 Gy, 7 days after irradiation, 4 Gy alone 10,6 ± 0,8)	Caryocyte count ([3]; 10 μg/kg IP 1 day before 4 Gy, 11 days after irradiation, 4 Gy alone 17,0 ± 0,6)	Caryocyte count ([3]; 10 μg/kg IP 1 day before 4 Gy, 14 days after irradiation, 4 Gy alone 17,0 ± 1,2)	Caryocyte count ([3]; 10 μg/kg IP 2 days before 4 Gy, 4 days after irradiation, 4 Gy alone 9,0 ± 0,3)	Caryocyte count ([3]; 10 μg/kg IP 2 days before 4 Gy, 7 days after irradiation, 4 Gy alone 10,6 ± 0,8)	Caryocyte count ([3]; 10 μg/kg IP 2 days before 4 Gy, 11 days after irradiation, 4 Gy alone 17,0 ± 0,6)	Caryocyte count ([3]; 10 μg/kg IP 2 days before 4 Gy, 14 days after irradiation, 4 Gy alone 17,0 ± 1,2)
H-Ile-Glu-Trp-OH [reference compound]	negligible inhibition	stimulates the proliferation											
H-D-Glu-D-Trp-OH			450 ± 95	780 ± 92	955 ± 93	8,0 ± 0,7 × 10^6	16,4 ± 0,7 × 10^6	16,0 ± 1,3 × 10^6	15,0 ± 0,6 × 10^6	8,5 ± 0,5 × 10^6	20,0 ± 0,7 × 10^6	23,0 ± 1,9 × 10^6	24,5 ± 0,9 × 10^6
